Measurements published in patent publication US20250197414A1, “SALT FORM AND CRYSTAL FORM OF VANIN ENZYME INHIBITOR, METHOD FOR PREPARING SAME, AND USE THEREOF” (SHANGHAI MEIYUE BIOTECH DEVELOPMENT CO., LTD., priority 2022, published 2025).
Read-outs that look alike come from different tables or passages of the source.

Columns and labels:
Format in all cases: physicochemical
[1] = Stability study on crystal form A (related substances by HPLC, crystal form by XRPD)
Protocol: Detection method of stability sample related substances: Approximately 5 mg of the sample was weighed, added with 5 mL of 20% methanol, ultrasonicated for a few seconds so that the compound can be completely dissolved, and 5 μL of the sample was injected for testing of related substances.

[2] = Solubility test of compound of formula I and its salts at 37° C.; details: for solubility at 1 h / solubility at 24 h: thermodynamic from solid; for solubility at 1 h / solubility at 24 h / Solubility (mg/mL) (1 h) / Solubility (mg/mL) (24 h): calculated as free base; for solubility at 1 h: read-out: Solubility (mg/mL) (1 h); for solubility at 24 h: read-out: Solubility (mg/mL) (24 h); for solubility (in words): water, pH 7.4 at 37° C.
Protocol: The solubility of the compound of formula I and the L-tartrate, fumarate, and D-malate thereof was studied in water, SGF, FaSSIF, FeSSIF, and pH 7.4 at 37° C.
Experimental method: 30 mg (in water) or 15 mg of the sample was weighed into a 4 mL vial, then 3 mL of the medium to be tested was added thereto, and the resulting mixture was stirred continuously at 37° C. 0.5 mL of the sample was collected at 1 hour and 24 hours, respectively, and centrifuged at 12,000 rpm for 5 minutes. The supernatant was diluted to an appropriate multiple with 50% acetonitrile and its concentration was determined.
Therefore, 13 mg of the fumarate of the compound of formula I was weighed into a 25 mL volumetric flask (approximately 10 mg added to the 25 mL volumetric flask, calculated as free base), dissolved in 50% acetonitrile aqueous solution and diluted to the scale, and two samples were prepared in parallel. STD-1 was diluted to 200 μg/mL, 50 μg/mL, and 10 μg/mL with 50% acetonitrile aqueous solution. 5 μL of the sample was injected, and the standard curve was plotted.

[3] = Hygroscopicity (dynamic vapor sorption classification)
Protocol: Approximately 10 mg of the sample was weighed at 25° C. under a 0% to 95% to 0% relative humidity (RH) cycle for testing the moisture absorption/desorption characteristics.

[4] = Stability test of mono-L-tartrate, fumarate and D-malate (related substances by HPLC); details: for Purity (HPLC): in % (unit assumed); for chemical stability: after accelerated high humidity and high temperature testing
Protocol: The stability of the mono-L-tartrate, fumarate, and D-malate of the compound of formula I obtained in examples 1 to 3 was studied. […]
Detection of related substances: Approximately 5 mg of the sample was weighed into a 40 mL sample vial, dissolved in 10 mL of 50% acetonitrile aqueous solution and diluted to the scale, and 5 μL of the sample was injected.

[5] = pH 7.4 medium, aqueous buffer, pH 7.4, 37° C.
[6] = simulated gastric fluid, SGF, 37° C.

O=C(O)C(O)C(O)C(=O)O.O=C(c1cnc(NC2CCc3ncccc32)nc1)N1CCC2(CCOCC2)C1 (centres unmarked) [crystal form A]
Individual impurities % ([1]; 40° C./75% RH-closed-2 wks): 0.04%
Purity % ([1]; 40° C./75% RH-closed-2 wks): 99.92%
Total impurities % ([1]; 40° C./75% RH-closed-2 wks): 0.08%
Individual impurities % ([1]; 40° C./75% RH-open-2 wks): 0.06%
Purity % ([1]; 40° C./75% RH-open-2 wks): 99.89%
Total impurities % ([1]; 40° C./75% RH-open-2 wks): 0.11%
Individual impurities % ([1]; 60° C.-open-2 wks): 0.06%
Purity % ([1]; 60° C.-open-2 wks): 99.87%
Total impurities % ([1]; 60° C.-open-2 wks): 0.13%
Individual impurities % ([1]; 80% RH-open-2 wks): 0.05%
Purity % ([1]; 80% RH-open-2 wks): 99.90%
Total impurities % ([1]; 80% RH-open-2 wks): 0.10%
Individual impurities % ([1]; 92.5% RH-open-2 wks): 0.06%
Purity % ([1]; 92.5% RH-open-2 wks): 99.89%
Total impurities % ([1]; 92.5% RH-open-2 wks): 0.11%
Individual impurities % ([1]; Initial): 0.04%
Purity % ([1]; Initial): 99.92%
Total impurities % ([1]; Initial): 0.08%
change of crystal form ([1]; at 60° C. under high humidity conditions of 80% RH): has not changed
crystal form obtained after exposure ([1]; exposed to 92.5% RH for 3 days): crystal form B
stability (in words) ([1]; high temperature and high humidity conditions): good stability

O=C(c1ccc(N[C@@H]2CCc3ncccc32)nc1)N1CCC2(CCOCC2)C1 [Compound of formula I]
Final pH ([2]; FaSSIF, 37° C.): 6.38
Sample appearance ([2]; FaSSIF, 37° C.): Clarified solution
Final pH ([2]; FeSSIF, 37° C.): 4.99
Sample appearance ([2]; FeSSIF, 37° C.): Clarified solution
Final pH ([2]; SGF, 37° C.): 1.37
Sample appearance ([2]; SGF, 37° C.): Clarified solution
Final pH ([2]; Water, 37° C.): 7.32
Sample appearance ([2]; Water, 37° C.): Clarified solution
Final pH ([2]; pH 7.4, 37° C.): 7.56
Sample appearance ([2]; pH 7.4, 37° C.): Clarified solution
solubility at 1 h [2, 5]: 5.11 mg/mL
solubility at 24 h [2, 5]: 5.2 mg/mL
solubility at 1 h [2, 6]: 5.23 mg/mL
solubility at 24 h [2, 6]: 5.39 mg/mL
solubility at 1 h ([2]; FaSSIF, 37° C.): 5.1 mg/mL
solubility at 24 h ([2]; FaSSIF, 37° C.): 5.22 mg/mL
solubility at 1 h ([2]; FeSSIF, 37° C.): 5.46 mg/mL
solubility at 24 h ([2]; FeSSIF, 37° C.): 5.33 mg/mL
solubility at 1 h ([2]; Water, 37° C.): 10.6 mg/mL
solubility at 24 h ([2]; Water, 37° C.): 10.8 mg/mL
solubility (in words) ([2]; SGF, FaSSIF, FeSSIF): good solubility
hygroscopicity [3]: highly hygroscopic

O=C(c1cnc(N[C@@H]2CCc3ncccc32)nc1)N1CCC2(CCOCC2)C1 [Mono-L-tartrate of compound of formula I]
Final pH ([2]; FaSSIF, 37° C.): 3.84
Sample appearance ([2]; FaSSIF, 37° C.): Clarified solution
Sample appearance ([2]; FeSSIF, 37° C.): Clarified solution
Sample appearance ([2]; SGF, 37° C.): Clarified solution
Final pH ([2]; Water, 37° C.): 3.21
Sample appearance ([2]; Water, 37° C.): Clarified solution
Sample appearance ([2]; pH 7.4, 37° C.): Clarified solution
solubility at 1 h [2, 5]: 5.09 mg/mL
solubility at 24 h [2, 5]: 4.97 mg/mL
solubility at 1 h [2, 6]: 5.19 mg/mL
solubility at 24 h [2, 6]: 5.25 mg/mL
solubility at 1 h ([2]; FaSSIF, 37° C.): 5.08 mg/mL
solubility at 24 h ([2]; FaSSIF, 37° C.): 5.12 mg/mL
solubility at 1 h ([2]; FeSSIF, 37° C.): 5.12 mg/mL
solubility at 24 h ([2]; FeSSIF, 37° C.): 5.02 mg/mL
solubility at 1 h ([2]; Water, 37° C.): 10.3 mg/mL
solubility at 24 h ([2]; Water, 37° C.): 10.5 mg/mL
solubility (in words) ([2]; SGF, FaSSIF, FeSSIF): good solubility
Total impurities % ([4]; 40° C./75% RH-closed-2 wks): 0.06%
Purity (HPLC) ([4]; 40° C./75% RH-closed-2 wks): 99.94
Total impurities % ([4]; 40° C./75% RH-open-2 wks): 0.10%
Purity (HPLC) ([4]; 40° C./75% RH-open-2 wks): 99.90
Total impurities % ([4]; 60° C.-open-2 wks): 0.08%
Purity (HPLC) ([4]; 60° C.-open-2 wks): 99.92
Total impurities % ([4]; Initial): 0.06%
Purity (HPLC) ([4]; Initial): 99.94
chemical stability [4]: good chemical stability

O=C(O)C=CC(=O)O.O=C(c1cnc(NC2CCc3ncccc32)nc1)N1CCC2(CCOCC2)C1 (centres unmarked) [Fumarate of compound of formula I]
Sample appearance ([2]; FaSSIF, 37° C.): Clarified solution
Solubility (mg/mL) (1 h) ([2]; FaSSIF, 37° C.): 5.44 mg/mL
Solubility (mg/mL) (24 h) ([2]; FaSSIF, 37° C.): 5.57 mg/mL
Sample appearance ([2]; FeSSIF, 37° C.): Clarified solution
Solubility (mg/mL) (1 h) ([2]; FeSSIF, 37° C.): 5.75 mg/mL
Solubility (mg/mL) (24 h) ([2]; FeSSIF, 37° C.): 5.63 mg/mL
Sample appearance ([2]; SGF, 37° C.): Clarified solution
Solubility (mg/mL) (1 h) ([2]; SGF, 37° C.): 5.37 mg/mL
Solubility (mg/mL) (24 h) ([2]; SGF, 37° C.): 5.46 mg/mL
Final pH ([2]; Water, 37° C.): 3.32
Sample appearance ([2]; Water, 37° C.): Clarified solution
Solubility (mg/mL) (1 h) ([2]; Water, 37° C.): 11.05 mg/mL
Solubility (mg/mL) (24 h) ([2]; Water, 37° C.): 11.37 mg/mL
Sample appearance ([2]; pH 7.4, 37° C.): Clarified solution
Solubility (mg/mL) (1 h) ([2]; pH 7.4, 37° C.): 5.65 mg/mL
Solubility (mg/mL) (24 h) ([2]; pH 7.4, 37° C.): 5.61 mg/mL
solubility (in words) ([2]; SGF, FaSSIF, FeSSIF): good solubility
Total impurities % ([4]; 40° C./75% RH-closed-2 wks): 0.30%
Purity (HPLC) ([4]; 40° C./75% RH-closed-2 wks): 99.70
Total impurities % ([4]; 40° C./75% RH-open-2 wks): 0.31%
Purity (HPLC) ([4]; 40° C./75% RH-open-2 wks): 99.69
Total impurities % ([4]; 60° C.-open-2 wks): 0.32%
Purity (HPLC) ([4]; 60° C.-open-2 wks): 99.68
Total impurities % ([4]; Initial): 0.31%
Purity (HPLC) ([4]; Initial): 99.69
chemical stability [4]: good chemical stability

O=C(O)CC(O)C(=O)O.O=C(c1cnc(NC2CCc3ncccc32)nc1)N1CCC2(CCOCC2)C1 [D-malate of compound of formula I]
Sample appearance ([2]; FaSSIF, 37° C.): Clarified solution
Solubility (mg/mL) (1 h) ([2]; FaSSIF, 37° C.): 5.26 mg/mL
Solubility (mg/mL) (24 h) ([2]; FaSSIF, 37° C.): 5.36 mg/mL
Sample appearance ([2]; FeSSIF, 37° C.): Clarified solution
Solubility (mg/mL) (1 h) ([2]; FeSSIF, 37° C.): 5.31 mg/mL
Solubility (mg/mL) (24 h) ([2]; FeSSIF, 37° C.): 5.28 mg/mL
Sample appearance ([2]; SGF, 37° C.): Clarified solution
Solubility (mg/mL) (1 h) ([2]; SGF, 37° C.): 5.36 mg/mL
Solubility (mg/mL) (24 h) ([2]; SGF, 37° C.): 5.37 mg/mL
Final pH ([2]; Water, 37° C.): 3.75
Sample appearance ([2]; Water, 37° C.): Clarified solution
Solubility (mg/mL) (1 h) ([2]; Water, 37° C.): 10.60 mg/mL
Solubility (mg/mL) (24 h) ([2]; Water, 37° C.): 10.76 mg/mL
Sample appearance ([2]; pH 7.4, 37° C.): Clarified solution
Solubility (mg/mL) (1 h) ([2]; pH 7.4, 37° C.): 5.54 mg/mL
Solubility (mg/mL) (24 h) ([2]; pH 7.4, 37° C.): 5.53 mg/mL
solubility (in words) ([2]; SGF, FaSSIF, FeSSIF): good solubility
Total impurities % ([4]; 40° C./75% RH-closed-20 d): 0.09%
Purity (HPLC) ([4]; 40° C./75% RH-closed-20 d): 99.91
Total impurities % ([4]; 40° C./75% RH-open-20 d): 0.10%
Purity (HPLC) ([4]; 40° C./75% RH-open-20 d): 99.90
Total impurities % ([4]; 60° C.-open-20 d): 0.18%
Purity (HPLC) ([4]; 60° C.-open-20 d): 99.82
Total impurities % ([4]; Initial): 0.11%
Purity (HPLC) ([4]; Initial): 99.89
chemical stability [4]: good chemical stability
